Measurements: PubChem BioAssay AID328 (DTP/NCI, 2004)
Values joined by “and” are separate entries in the source; they are usually repeats but may differ in a detail not shown here. Identical values can stand only once. Inconclusive results and toxic doses are left out. The calls were made as follows: active = survival T/C of 150% or more; inactive = T/C below 125% in these data.

Tested on: BDF1 mice, P388 leukemia ip, median survival T/C
Assay: NCI In Vivo Anticancer Drug Screen. Data for tumor model P388 Leukemia (intraperitoneal) in B6D2F1 (BDF1) mice
Details: endpoint: median survival time, higher = longer survival
Summary of the method: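 Steps: implant the tumour, treat one group with compound and another with vehicle, record survival, then divide treated by control.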

[1] = dose: 100.0 mg/kg/injection, schedule: Q01DX009 (ip), vehicle: saline with Tween-80
[2] = dose: 100.0 mg/kg/injection, schedule: Q04DX003 (ip), vehicle: saline with Tween-80
[3] = dose: 200.0 mg/kg/injection, schedule: Q01DX009 (ip), vehicle: saline with Tween-80
[4] = dose: 200.0 mg/kg/injection, schedule: Q04DX003 (ip), vehicle: saline with Tween-80
[5] = dose: 400.0 mg/kg/injection, schedule: Q01DX009 (ip), vehicle: saline with Tween-80
[6] = dose: 400.0 mg/kg/injection, schedule: Q04DX003 (ip), vehicle: saline with Tween-80
[7] = dose: 100.0 mg/kg/injection, schedule: Q04DX003 (ip), vehicle: saline
[8] = dose: 200.0 mg/kg/injection, schedule: Q04DX003 (ip), vehicle: saline
[9] = dose: 400.0 mg/kg/injection, schedule: Q04DX003 (ip), vehicle: saline
[10] = dose: 100.0 mg/kg/injection, schedule: Q04DX003 (ip), vehicle: Klucel (hydroxypropylcellulose) (HPC)
[11] = dose: 100.0 mg/kg/injection, schedule: Q01DX009 (ip), vehicle: saline
[12] = dose: 200.0 mg/kg/injection, schedule: Q01DX009 (ip), vehicle: saline
[13] = dose: 400.0 mg/kg/injection, schedule: Q01DX009 (ip), vehicle: saline
[14] = dose: 50.0 mg/kg/injection, schedule: Q01DX009 (ip), vehicle: saline with Tween-80

Measured: T/C

C[n+]1ccc(Nc2ccc(NC(=O)c3ccc(Nc4cc[n+](C)c5ccc(N)cc45)cc3N)cc2)cc1
inactive: dose: 0.88 mg/kg/injection, schedule: Q04DX003 (ip), vehicle: saline with Tween-80 123 % of control | dose: 25.0 mg/kg/injection, schedule: Q01DX009 (ip), vehicle: Klucel (hydroxypropylcellulose) (HPC) 116 % of control | dose: 32.0 mg/kg/injection, schedule: Q01DX009 (ip), vehicle: saline with Tween-80 112 % of control | dose: 50.0 mg/kg/injection, schedule: Q01DX009 (ip), vehicle: saline 106 % of control | dose: 50.0 mg/kg/injection, schedule: Q01DX010 (ip), vehicle: saline 90 % of control
active: dose: 0.5 mg/kg/injection, schedule: Q01DX010 (ip), vehicle: saline 150 % of control | dose: 1.0 mg/kg/injection, schedule: Q01DX010 (ip), vehicle: saline 160 % of control | dose: 1.56 mg/kg/injection, schedule: Q01DX009 (ip), vehicle: Klucel (hydroxypropylcellulose) (HPC) 194 % of control | dose: 2.0 mg/kg/injection, schedule: Q01DX009 (ip), vehicle: saline with Tween-80 150 % of control | dose: 2.0 mg/kg/injection, schedule: Q01DX010 (ip), vehicle: saline 205 % of control | dose: 3.0 mg/kg/injection, schedule: Q04DX003 (ip), vehicle: saline with Tween-80 152 % of control | dose: 3.12 mg/kg/injection, schedule: Q01DX009 (ip), vehicle: Klucel (hydroxypropylcellulose) (HPC) 252 % of control and 216 % of control | dose: 3.12 mg/kg/injection, schedule: Q01DX009 (ip), vehicle: saline 169 % of control | dose: 3.6 mg/kg/injection, schedule: Q04DX003 (ip), vehicle: saline with Tween-80 154 % of control | dose: 4.0 mg/kg/injection, schedule: Q01DX009 (ip), vehicle: saline with Tween-80 229 % of control | dose: 4.0 mg/kg/injection, schedule: Q01DX010 (ip), vehicle: saline 300 % of control | dose: 5.56 mg/kg/injection, schedule: Q04DX003 (ip), vehicle: saline 168 % of control | dose: 5.6 mg/kg/injection, schedule: Q04DX003 (ip), vehicle: saline with Tween-80 159 % of control | dose: 6.25 mg/kg/injection, schedule: Q01DX009 (ip), vehicle: Klucel (hydroxypropylcellulose) (HPC) 266 % of control and 267 % of control | dose: 6.25 mg/kg/injection, schedule: Q01DX009 (ip), vehicle: saline 172 % of control | dose: 6.25 mg/kg/injection, schedule: Q01DX010 (ip), vehicle: saline 300 % of control | dose: 6.25 mg/kg/injection, schedule: Q04DX003 (ip), vehicle: saline 163 % of control | dose: 8.0 mg/kg/injection, schedule: Q01DX009 (ip), vehicle: saline with Tween-80 250 % of control | dose: 8.3 mg/kg/injection, schedule: Q04DX003 (ip), vehicle: saline with Tween-80 177 % of control | dose: 8.33 mg/kg/injection, schedule: Q04DX003 (ip), vehicle: saline 227 % of control | dose: 12.5 mg/kg/injection, schedule: Q01DX009 (ip), vehicle: Klucel (hydroxypropylcellulose) (HPC) 267 % of control and 199 % of control | dose: 12.5 mg/kg/injection, schedule: Q01DX009 (ip), vehicle: saline 172 % of control | dose: 12.5 mg/kg/injection, schedule: Q01DX010 (ip), vehicle: saline 300 % of control | dose: 12.5 mg/kg/injection, schedule: Q04DX003 (ip), vehicle: saline with Tween-80 209 % of control | dose: 12.5 mg/kg/injection, schedule: Q04DX003 (ip), vehicle: saline 200 % of control and 218 % of control and 186 % of control | dose: 16.0 mg/kg/injection, schedule: Q01DX009 (ip), vehicle: saline with Tween-80 250 % of control | dose: 18.7 mg/kg/injection, schedule: Q04DX003 (ip), vehicle: saline with Tween-80 263 % of control | dose: 25.0 mg/kg/injection, schedule: Q01DX009 (ip), vehicle: saline 172 % of control | dose: 25.0 mg/kg/injection, schedule: Q04DX003 (ip), vehicle: saline 272 % of control and 254 % of control | dose: 26.0 mg/kg/injection, schedule: Q04DX003 (ip), vehicle: saline with Tween-80 272 % of control | dose: 40.0 mg/kg/injection, schedule: Q04DX003 (ip), vehicle: saline with Tween-80 272 % of control | dose: 50.0 mg/kg/injection, schedule: Q04DX003 (ip), vehicle: saline 310 % of control | dose: 60.0 mg/kg/injection, schedule: Q04DX003 (ip), vehicle: saline with Tween-80 272 % of control

ClC(Cl)(Cl)CC(Br)c1ccccc1 (stereo not given)
inactive: dose: 100.0 mg/kg/injection, schedule: Q04DX003 (ip), vehicle: saline sonified 91 % of control | dose: 200.0 mg/kg/injection, schedule: Q04DX003 (ip), vehicle: saline sonified 100 % of control | dose: 400.0 mg/kg/injection, schedule: Q04DX003 (ip), vehicle: saline sonified 100 % of control

C(=Nc1ccccc1)c1ccc(-c2ccccc2)cc1
inactive: [1] 115 % of control | [2] 104 % of control | [3] 100 % of control | [4] 104 % of control | [5] 115 % of control | [6] 109 % of control

Nc1[nH]c(=S)[nH]c(=O)c1NC(=O)C1CC1
inactive: [1] 100 % of control | [7] 104 % of control | [3] 100 % of control | [8] 104 % of control | [5] 100 % of control | [9] 100 % of control

O=CNC(Cc1ccc(O)cc1)C(=O)O (stereo not given)
inactive: [7] 110 % of control | [8] 100 % of control | [9] 100 % of control

Cc1ccc(C(C#N)Nc2ccccc2)cc1 (stereo not given)
inactive: [1] 100 % of control | [2] 100 % of control | [3] 115 % of control | [4] 100 % of control | [5] 100 % of control | [6] 104 % of control

CC1COCC(C)N1 (stereo not given)
inactive: [7] 106 % of control | [8] 111 % of control | [9] 106 % of control

CN(C)c1cc2nc[nH]c(=O)c2cc1[N+](=O)[O-]
inactive: [10] 116 % of control

CCCCCCCCCCCCCCCC[N+]1(CC)CCCC1
inactive: dose: 0.19 mg/kg/injection, schedule: Q01DX009 (ip), vehicle: saline 120 % of control | dose: 0.39 mg/kg/injection, schedule: Q01DX009 (ip), vehicle: saline 104 % of control

C[Si](C)(C)OC/C=C\CO[Si](C)(C)C
inactive: [11] 100 % of control | [12] 108 % of control | [13] 108 % of control

CCCCOC1OCN(c2ccc(OC)cc2)CC1(C)C (stereo not given)
inactive: dose: 50.0 mg/kg/injection, schedule: Q01DX009 (ip), vehicle: saline + alcohol 114 % of control | dose: 100.0 mg/kg/injection, schedule: Q01DX009 (ip), vehicle: saline + alcohol 107 % of control | dose: 200.0 mg/kg/injection, schedule: Q01DX009 (ip), vehicle: saline + alcohol 118 % of control

Nc1nc(N)c2cc(Sc3ccc4ccccc4c3)ccc2n1
inactive: [14] 113 % of control | [1] 123 % of control

CNCc1cccs1
inactive: [7] 106 % of control | [8] 117 % of control | [9] 100 % of control

O=C(c1ccccc1)c1cc(-c2ccccc2)n(C2CCCCC2)c1
inactive: dose: 25.0 mg/kg/injection, schedule: Q01DX009 (ip), vehicle: saline with Tween-80 96 % of control | [14] 86 % of control | [1] 94 % of control | [3] 96 % of control

COc1ccccc1NC(=O)c1ccc(Cl)cc1
inactive: dose: 100.0 mg/kg/injection, schedule: Q01DX009 (ip), vehicle: Klucel (hydroxypropylcellulose) (HPC) 100 % of control | [10] 100 % of control | dose: 200.0 mg/kg/injection, schedule: Q01DX009 (ip), vehicle: Klucel (hydroxypropylcellulose) (HPC) 100 % of control | dose: 200.0 mg/kg/injection, schedule: Q04DX003 (ip), vehicle: Klucel (hydroxypropylcellulose) (HPC) 100 % of control | dose: 400.0 mg/kg/injection, schedule: Q01DX009 (ip), vehicle: Klucel (hydroxypropylcellulose) (HPC) 104 % of control | dose: 400.0 mg/kg/injection, schedule: Q04DX003 (ip), vehicle: Klucel (hydroxypropylcellulose) (HPC) 109 % of control

[F][Fe]([F])([F])([F])([F])[F]
inactive: [14] 95 % of control | [1] 101 % of control

BrC1C2CC(c3ccccc32)C1Br (stereo not given)
inactive: dose: 100.0 mg/kg/injection, schedule: Q01DX001 (ip), vehicle: saline 109 % of control | [11] 100 % of control | [7] 100 % of control | dose: 200.0 mg/kg/injection, schedule: Q01DX001 (ip), vehicle: saline 104 % of control | [12] 104 % of control | [8] 91 % of control | dose: 400.0 mg/kg/injection, schedule: Q01DX001 (ip), vehicle: saline 100 % of control | [13] 109 % of control | [9] 104 % of control
